Data from patent USRE40086E1, “Method for treating bacterial infection with novel 7-substituted-9-substituted amino 6-demethyl-6-deoxytetracyclines” (Wyeth Holdings Corporation, priority 1991, dated 2008).

Tests used:
Listeria monocytogenes = test: MIC vs recent clinical and agricultural isolates (Table V, KK); assay type: cell-based; details: [8] tested
E. coli UBMS 90-4 (tetM) = test: MIC, agar dilution; assay type: cell-based; details: E. coli UBMS 90-4 TetM; Table IA; unit assumed
Citrobacter freundii = test: MIC vs recent clinical and agricultural isolates (Table V, KK); assay type: cell-based; details: [10] tested
E. coli UBMS 88-1 (tetB) = test: MIC, agar dilution; assay type: cell-based; details: E. coli UBMS 88-1 TetB; Table IA; unit assumed
[1] = tested on: Staphylococcus aureus, methicillin-susceptible; test: MIC vs recent clinical and agricultural isolates (Table V, KK); assay type: cell-based; details: [15] tested
Shigella spp. = assay type: cell-based; details: [14] tested
[2] = tested on: S. haemolyticus AVAH 88-3; test: MIC, agar dilution; assay type: cell-based; details: S. hemolyticus AVHAH 88-3; Table IA; unit assumed
Morganella morganii = test: MIC vs recent clinical and agricultural isolates (Table V, KK); assay type: cell-based; details: [16] tested
[3] = tested on: Bacertoides fragilis group; test: as above; assay type: cell-based; details: [10] tested
Moraxella catarrhalis = test: as above; assay type: cell-based; details: [18] tested
Streptococcus pyogenes = test: as above; assay type: cell-based; details: [10] tested
Neisseria gonorrhoeae = test: as above; assay type: cell-based; details: [14] tested
E. coli UBMS 89-1 (tetM) = test: MIC, agar dilution; assay type: cell-based; details: E. coli UBMS 89-1 TetM; Table IA; unit assumed
Pseudomonas aeruginosa = test: MIC vs recent clinical and agricultural isolates (Table V, KK); assay type: cell-based; details: [10] tested
Klebsiella oxytoca = test: as above; assay type: cell-based; details: [10] tested
Proteus vulgaris = test: as above; assay type: cell-based; details: [18] tested
Anaerobic Gram (+) Cocci = test: as above; assay type: cell-based; details: [15] tested
Streptococcus pneumoniae = test: as above; assay type: cell-based; details: [10] tested
[4] = tested on: S. aureus UBMS 90-2 (tetM); test: MIC, agar dilution; assay type: cell-based; details: S. aureus UBMS 90-2 TetM; Table IA; unit assumed
[5] = tested on: Staphylococcus aureus, methicillin-resistant; test: MIC vs recent clinical and agricultural isolates (Table V, KK); assay type: cell-based; details: [15] tested
Serratia mercescens = test: as above; assay type: cell-based; details: [10] tested
[6] = tested on: S. aureus UBMS 90-1 (tetM); test: MIC, agar dilution; assay type: cell-based; details: S. aureus UBMS 90-1 TetM; Table IA; unit assumed
[7] = tested on: S. aureus UBMS 88-4 (Sensitive); test: MIC, agar dilution; assay type: cell-based; details: S. aureus UBMS 88-4; Table IA; unit assumed
Xanthomonas maltophilia = test: MIC vs recent clinical and agricultural isolates (Table V, KK); assay type: cell-based; details: [10] tested
[8] = tested on: Escherichia coli (Clinical); test: as above; assay type: cell-based; details: [30] tested
S. aureus SMITH (sens) = test: In vivo antibacterial evaluation, acute lethal infection in mice; details: Oral
Text: In Vivo Antibacterial Evaluation (Table VII)

[9] = tested on: Escherichia coli (Agricultural); test: MIC vs recent clinical and agricultural isolates (Table V, KK); assay type: cell-based; details: [15] tested
Citrobacter diversus = test: as above; assay type: cell-based; details: [10] tested
[10] = tested on: S. aureus Smith (Sensitive); test: MIC, agar dilution; assay type: cell-based; details: S. aureus SMITH (MP); Table IA; unit assumed
Streptococcus agalactiae = test: MIC vs recent clinical and agricultural isolates (Table V, KK); assay type: cell-based; details: [10] tested
[11] = tested on: S. aureus UBMS 88-7 (tetK); test: MIC, agar dilution; assay type: cell-based; details: S. aureus UBMS 88-7 TetK; Table IA; unit assumed
Kiebsiella pneumoniae = test: MIC vs recent clinical and agricultural isolates (Table V, KK); assay type: cell-based; details: [10] tested
[12] = tested on: Escherichia coli UBMS 90-4 (Tet-M); test: In vivo antibacterial evaluation, acute lethal infection in mice; details: mice, Escherichia coli UBMS 90-4 (Tet-M), Intraveneous
E. faecalis ATCC 29212 = test: MIC, agar dilution; assay type: cell-based; details: E. faecalis ATCC 29212; Table IA; unit assumed
Enterobacter cloacae = test: MIC vs recent clinical and agricultural isolates (Table V, KK); assay type: cell-based; details: [10] tested
Clostridium difficile = test: as above; assay type: cell-based; details: [12] tested
[13] = tested on: Pasturella multocida (Agricultural & Clinical); test: as above; assay type: cell-based; details: [17] tested
Enterobacter aerogenes = test: as above; assay type: cell-based; details: [10] tested
[14] = tested on: Bordetella bronchiseptica (Agricultural); test: as above; assay type: cell-based; details: [10] tested
Proteus mirabilis = test: as above; assay type: cell-based; details: [26] tested
Bacteroides spp. = test: as above; assay type: cell-based; details: [9] tested
[15] = tested on: Enterococcus spp. Vancomycin-resistant; test: as above; assay type: cell-based; details: [8] tested
[16] = tested on: S. aureus ATCC 29213 (Sensitive); test: MIC, agar dilution; assay type: cell-based; details: S. aureus ATCC 29213; Table IA
Enterococcus faecium = test: MIC vs recent clinical and agricultural isolates (Table V, KK); assay type: cell-based; details: [10] tested
[17] = tested on: S. aureus UBMS 90-3 (Sensitive); test: MIC, agar dilution; assay type: cell-based; details: S. aureus UBMS 90-3; Table IA; unit assumed
Clostridium perfringens = assay type: cell-based; details: [16] tested

SMILES: CN(C)CC(=O)Nc1cc(N(C)C)c2c(c1O)C(=O)C1=C(O)[C@]3(O)C(=O)C(C(N)=O)=C(O)[C@@H](N(C)C)C3CC1C2.Cl.Cl (stereo partly drawn) [KK, [4S-(4alpha,12aalpha)]-4,7-Bis(dimethylamino)-9-[[(dimethylamino)acetyl]amino]-1,4,4a,5,5a,6,11,12a-octahydro-3,10,12,12a-tetrahydroxy-1,11-dioxo-2-naphthacenecarboxamide dihydrochloride]
- MIC (range over isolates) (Listeria monocytogenes): 0.06 to 0.12 µg/mL
- Antibacterial activity (MIC) (E. coli UBMS 90-4 (tetM)): 0.25 µg/mL
- MIC (range over isolates) (Citrobacter freundii): 0.25 to 8 µg/mL
- Antibacterial activity (MIC) (E. coli UBMS 88-1 (tetB)): 0.25 µg/mL
- MIC (range over isolates) [1]: 0.12 to 0.25 µg/mL
- MIC (range over isolates) (Shigella spp.): 0.06 to 0.5 µg/mL
- Antibacterial activity (MIC) [2]: 0.12 µg/mL
- MIC (range over isolates) (Morganella morganii): 0.5 to 4 µg/mL
- MIC (range over isolates) [3]: 0.06 to 2 µg/mL
- MIC (range over isolates) (Moraxella catarrhalis): 0.06 to 0.12 µg/mL
- MIC (range over isolates) (Streptococcus pyogenes): 0.06 to 0.12 µg/mL
- MIC (range over isolates) (Neisseria gonorrhoeae): 0.25 to 1 µg/mL
- Antibacterial activity (MIC) (E. coli UBMS 89-1 (tetM)): 0.12 µg/mL
- MIC (range over isolates) (Pseudomonas aeruginosa): 1 to 16 µg/mL
- MIC (range over isolates) (Klebsiella oxytoca): 0.5 to 1 µg/mL
- MIC (range over isolates) (Proteus vulgaris): 0.5 to 4 µg/mL
- MIC (range over isolates) (Anaerobic Gram (+) Cocci): 0.015 to 0.06 µg/mL
- MIC (range over isolates) (Streptococcus pneumoniae): 0.03 to 0.25 µg/mL
- Antibacterial activity (MIC) [4]: 0.12 µg/mL
- MIC (range over isolates) [5]: 0.12 to 2 µg/mL
- MIC (range over isolates) (Serratia mercescens): 2 to 8 µg/mL
- Antibacterial activity (MIC) [6]: 0.25 µg/mL
- Antibacterial activity (MIC) [7]: 0.12 µg/mL
- MIC (range over isolates) (Xanthomonas maltophilia): 0.5 to 2 µg/mL
- MIC (range over isolates) [8]: 0.12 to 4 µg/mL
- ED50 (S. aureus SMITH (sens)): 8 to 16 mg/kg
- MIC (range over isolates) [9]: 0.12 to 4 µg/mL
- MIC (range over isolates) (Citrobacter diversus): 0.25 to 1 µg/mL
- Antibacterial activity (MIC) [10]: 0.06 µg/mL
- MIC (range over isolates) (Streptococcus agalactiae): 0.06 to 0.25 µg/mL
- Antibacterial activity (MIC) [11]: 0.25 µg/mL
- MIC (range over isolates) (Kiebsiella pneumoniae): 0.25 to 8 µg/mL
- ED50 [12]: 2.49 mg/kg
- Antibacterial activity (MIC) (E. faecalis ATCC 29212): 0.06 µg/mL
- MIC (range over isolates) (Enterobacter cloacae): 0.5 to 1 µg/mL
- MIC (range over isolates) (Clostridium difficile): 0.03 µg/mL
- MIC (range over isolates) [13]: 0.03 to 0.25 µg/mL
- MIC (range over isolates) (Enterobacter aerogenes): 0.5 to 1 µg/mL
- MIC (range over isolates) [14]: 0.12 µg/mL
- MIC (range over isolates) (Proteus mirabilis): 1 to 32 µg/mL
- MIC (range over isolates) (Bacteroides spp.): 0.03 to 1 µg/mL
- MIC (range over isolates) [15]: 0.015 to 0.06 µg/mL
- Antibacterial activity (MIC) [16]: ≦0.015
- MIC (range over isolates) (Enterococcus faecium): 0.03 to 0.12 µg/mL
- Antibacterial activity (MIC) [17]: 0.03 µg/mL
- MIC (range over isolates) (Clostridium perfringens): 0.03 to 1 µg/mL
